The text below walks through data of patent US9890133B2 (priority 2011, dated 2018).

The term EC50 denotes the concentration needed to bring the measured effect to its halfway point.

For data set [1], the system named is Poliovirus 3. In words: microbe, parasite or virus in culture. The format is cell-based. Particulars: Enterovirus C, read-out: Poliovirus3 EC50.
Data set [2] in a line: in vitro. The following applies: human.

≈ marks a conversion by molar mass, not a printed value.

On to `CCCCC(=O)NC12C(=O)c3c(N)cccc3C1(OC(=O)CCCC)Oc1cc(C(C)C)ccc12` (stereo not shown) [Example 96, 1-Amino-7-isopropyl-10-oxo-9b-pentanamido-9b,10-dihydro-4bH-benzo[d]indeno[1,2-b]furan-4b-yl pentanoate], for which the EC50 in data set [1] was found to be 0.016 mg/L (≈ 0.0334 µM). Further, the CC50 in data set [2] was 24 mg/L (≈ 50.1 µM); in data set [2] (Picorana CC50), above 50 mg/L.

Take `COC(=O)OC12Oc3cc(C(C)C)ccc3C1(NC(C)=O)C(=O)c1c(N)cccc12` (stereo not shown) [Example 113, 9b-acetamido-1-amino-7-isopropyl-10-oxo-9b,10-dihydro-4bH-indeno[1,2-b]benzofuran-4b-yl methyl carbonate]: the EC50 in data set [1] is below 0.01 mg/L. For the same molecule, the CC50 is 48.8 mg/L (≈ 119 µM) in data set [2] and 45.5 mg/L (≈ 111 µM) in data set [2] (Picorana CC50).

For `CC(C)c1ccc2c(c1)OC1(O)c3cccc(N)c3C(=O)C21NC(=O)C(C)(C)C` (stereo not shown) [Example 114, N-(1-Amino-4b-hydroxy-7-isopropyl-10-oxo-9b,10-dihydro-4bH-benzo[d]indeno[1,2-b]furan-9b-yl)pivalamide], the EC50 in data set [1] stood at 0.034 mg/L (≈ 0.0862 µM). In addition, the CC50 in data set [2] is 43.1 mg/L (≈ 109 µM); in data set [2] (Picorana CC50), 45.9 mg/L (≈ 116 µM).

Turning to `CCCCOC(=O)OC12Oc3cc(C(C)C)ccc3C1(NC(C)=O)C(=O)c1c(N)cccc12` (stereo not shown) [Example 115, 9b-Acetamido-1-amino-7-isopropyl-10-oxo-9b,10-dihydro-4bH-benzo[d]indeno[1,2-b]furan-4b-yl butyl carbonate], the EC50 in data set [1] is below 0.01 mg/L. The CC50 is 23.1 mg/L (≈ 51.1 µM) in data set [2] and 42.8 mg/L (≈ 94.6 µM) in data set [2] (Picorana CC50).

For the molecule `CCOC(=O)OC12Oc3cc(C(C)C)ccc3C1(NC(C)=O)C(=O)c1c(N)cccc12` (stereo not shown) [Example 123, 9b-Acetamido-1-amino-7-isopropyl-10-oxo-9b,10-dihydro-4bH-benzo[d]indeno[1,2-b]furan-4b-yl ethyl carbonate], the EC50 in data set [1] was below 0.01 mg/L. Moreover, the figures for the CC50 in data set [2] and in data set [2] (Picorana CC50) were 43.4 mg/L (≈ 102 µM) and 37.5 mg/L (≈ 88.4 µM), respectively.

As to `CCC(=O)NC12C(=O)c3c(N)cccc3C1(O)Oc1cc(C(C)C)ccc12` (stereo not shown) [Example 143, N-(1-Amino-4b-hydroxy-7-isopropyl-10-oxo-9b,10-dihydro-4bH-indeno[1,2-b]benzofuran-9b-yl)propionamide], the 50% effective concentration (EC50) in data set [1] was below 0.01 mg/L. Further, the CC50 was 58.1 mg/L (≈ 158 µM) in data set [2] and above 50 mg/L in data set [2] (Picorana CC50).

With `CCCC(=O)NC12C(=O)c3c(N)cccc3C1(O)Oc1cc(C(C)C)ccc12` (stereo not shown) [Example 144, N-(1-Amino-4b-hydroxy-7-isopropyl-10-oxo-9b,10-dihydro-4bH-indeno[1,2-b]benzofuran-9b-yl) butyramide], the EC50 in data set [1] was below 0.01 mg/L. Further, the CC50 turned out to be 21.7 mg/L (≈ 57.1 µM) in data set [2] and 35.5 mg/L (≈ 93.3 µM) in data set [2] (Picorana CC50).

For the molecule `CC(C)c1ccc2c(c1)OC1(O)c3cccc(N)c3C(=O)C21NC(=O)c1ccccc1` (stereo not shown) [Example 153, N-(1-Amino-4b-hydroxy-7-isopropyl-10-oxo-9b,10-dihydro-4bH-indeno[1,2-b]benzofuran-9b-yl)benzamide], the EC50 in data set [1] is below 0.01 mg/L. For the same molecule, the CC50 turned out to be 16 mg/L (≈ 38.7 µM) in data set [2] and 9.02 mg/L (≈ 21.8 µM) in data set [2] (Picorana CC50).

Turning to `COc1cccc(C(=O)NC23C(=O)c4c(N)cccc4C2(O)Oc2cc(C(C)C)ccc23)c1` (stereo not shown) [Example 154, N-(1-Amino-4b-hydroxy-7-isopropyl-10-oxo-9b,10-dihydro-4bH-indeno[1,2-b]benzofuran-9b-yl)-3-methoxybenzamide], in data set [1], the EC50 was below 0.01 mg/L. Besides, the CC50 is 22.7 mg/L (≈ 51.1 µM) in data set [2] and 46.2 mg/L (≈ 104 µM) in data set [2] (Picorana CC50).

As for `CC(C)c1ccc2c(c1)OC1(O)c3cccc(N)c3C(=O)C21NC(=O)c1ccc(Cl)cc1` (stereo not shown) [Example 155, N-(1-Amino-4b-hydroxy-7-isopropyl-10-oxo-9b,10-dihydro-4bH-indeno[1,2-b]benzofuran-9b-yl)-4-chlorobenzamide], in data set [1], the concentration giving a half-maximal response (EC50) is below 0.01 mg/L. Moreover, the values for the CC50 in data set [2] and in data set [2] (Picorana CC50) were 7.81 mg/L (≈ 17.4 µM) and 9.02 mg/L (≈ 20.1 µM), respectively.

Turning to `CC(C)c1ccc2c(c1)OC1(O)c3cccc(N)c3C(=O)C21NC(=O)C1CC1` (stereo not shown) [Example 158, N-(1-Amino-4b-hydroxy-7-isopropyl-10-oxo-9b,10-dihydro-4bH-indeno[1,2-b]benzofuran-9b-yl)cyclopropanecarboxamide], in data set [1], the half-maximal effective concentration (EC50) is below 0.01 mg/L. Also, the CC50 in data set [2] stood at 39.4 mg/L (≈ 104 µM); in data set [2] (Picorana CC50), 44.7 mg/L (≈ 118 µM).

For `CC(C)c1ccc2c(c1)OC1(O)c3ccccc3C(=O)C21NC(=O)c1cccs1` (stereo not shown) [Example 161, N-(4b-Hydroxy-7-isopropyl-10-oxo-9b,10-dihydro-4bH-indeno[1,2-b]benzofuran-9b-yl)thiophene-2-carboxamide], the concentration for a half-maximal effect (EC50) in data set [1] was below 0.01 mg/L. Moreover, the values for the CC50 in data set [2] and in data set [2] (Picorana CC50) were 17.9 mg/L (≈ 44.1 µM) and 40.7 mg/L (≈ 100 µM), respectively.

As to `CC(C)c1ccc2c(c1)OC1(O)c3cccc(N)c3C(=O)C21NC=O` (stereo not shown) [Example 166, N-(1-Amino-4b-hydroxy-7-isopropyl-10-oxo-9b,10-dihydro-4bH-indeno[1,2-b]benzofuran-9b-yl)formamide], the EC50 in data set [1] was below 0.01 mg/L. The same molecule came in with a CC50 in data set [2] above 10 mg/L.

As to `CC(C)c1ccc2c(c1)OC1(O)c3cccc(N)c3C(=O)C21NC(=O)c1ccc(C#N)cc1` (stereo not shown) [Example 170, N-(1-Amino-4b-hydroxy-7-isopropyl-10-oxo-9b,10-dihydro-4bH-indeno[1,2-b]benzofuran-9b-yl)-4-cyanobenzamide], in data set [1], the EC50 was below 0.01 mg/L. The CC50 in data set [2] was above 10 mg/L.

Regarding `CC(C)c1ccc2c(c1)OC1(O)c3cccc(N)c3C(=O)C21NC(=O)c1ccc2ccccc2c1` (stereo not shown) [Example 171, N-(1-Amino-4b-hydroxy-7-isopropyl-10-oxo-9b,10-dihydro-4bH-indeno[1,2-b]benzofuran-9b-yl)-2-naphthamide], in data set [1], the EC50 worked out at 0.03 mg/L (≈ 0.0646 µM). This molecule also registered a CC50 in data set [2] above 10 mg/L.

For the molecule `CC(C)c1ccc2c(c1)OC1(O)c3cccc(N)c3C(=O)C21NC(=O)C1CCCO1` (stereo not shown) [Example 174, N-(1-Amino-4b-hydroxy-7-isopropyl-10-oxo-9b,10-dihydro-4bH-benzo[d]indeno[1,2-b]furan-9b-yl)tetrahydrofurane-2-carboxamide], the EC50 in data set [1] is 0.019 mg/L (≈ 0.0465 µM). Moreover, the CC50 in data set [2] was above 10 mg/L.

With `CC(C)c1ccc2c(c1)OC1(O)c3cccc(N)c3C(=O)C21NC(=O)C(F)(F)F` (stereo not shown) [Example 175, N-(1-Amino-4b-hydroxy-7-isopropyl-10-oxo-9b,10-dihydro-4bH-indeno[1,2-b]benzofuran-9b-yl)-2,2,2-trifluoroacetamide], the EC50 in data set [1] was below 0.01 mg/L. Further, the results for the CC50 in data set [2] and in data set [2] (Picorana CC50) were above 10 mg/L and above 11 mg/L, respectively.

For the molecule `CC(C)c1ccc2c(c1)OC1(O)c3cccc(N)c3C(=O)C21NC(=O)Cc1ccccc1` (stereo not shown) [Example 179, N-(1-Amino-4b-hydroxy-7-isopropyl-10-oxo-9b,10-dihydro-4bH-indeno[1,2-b]benzofuran-9b-yl)-2-phenylacetamide], the EC50 in data set [1] was below 0.01 mg/L. Also, the CC50 in data set [2] is above 10 mg/L.

As to `CC(C)c1ccc2c(c1)OC1(O)c3cccc(N)c3C(=O)C21NC(=O)/C=C/c1ccc(Cl)c(Cl)c1` (stereo not shown) [Example 180], the EC50 in data set [1] is 0.033 mg/L (≈ 0.0648 µM). In addition, the results for the CC50 in data set [2] and in data set [2] (Picorana CC50) were above 10 mg/L and 4.32 mg/L (≈ 8.48 µM), respectively.

With `CC(C)c1ccc2c(c1)OC1(O)c3cccc(N)c3C(=O)C21NC(=O)c1ccc(OCc2ccccc2)cc1` (stereo not shown) [Example 181, N-(1-Amino-4b-hydroxy-7-isopropyl-10-oxo-9b,10-dihydro-4bH-indeno[1,2-b]benzofuran-9b-yl)-4-(benzyloxy)benzamide], the EC50 in data set [1] is 0.036 mg/L (≈ 0.0692 µM). In data set [2], the CC50 was above 10 mg/L.

For `COc1ccccc1C(=O)NC12C(=O)c3c(N)cccc3C1(O)Oc1cc(C(C)C)ccc12` (stereo not shown) [Example 183, N-(1-Amino-4b-hydroxy-7-isopropyl-10-oxo-9b,10-dihydro-4bH-indeno[1,2-b]benzofuran-9b-yl)-2-methoxybenzamide], in data set [1], the EC50 is 0.014 mg/L (≈ 0.0315 µM). For the same molecule, the CC50 was above 10 mg/L in data set [2] and 8.54 mg/L (≈ 19.2 µM) in data set [2] (Picorana CC50).

As to `Cc1ccccc1C(=O)NC12C(=O)c3c(N)cccc3C1(O)Oc1cc(C(C)C)ccc12` (stereo not shown) [Example 186, N-(1-Amino-4b-hydroxy-7-isopropyl-10-oxo-9b,10-dihydro-4bH-benzo[d]indeno[1,2-b]furan-9b-yl)-2-methylbenzamide], the EC50 in data set [1] came to 0.026 mg/L (≈ 0.0607 µM). Moreover, the CC50 in data set [2] is above 10 mg/L; in data set [2] (Picorana CC50) it was 8.31 mg/L (≈ 19.4 µM).

In the case of `Cc1cccc(C(=O)NC23C(=O)c4c(N)cccc4C2(O)Oc2cc(C(C)C)ccc23)c1` (stereo not shown) [Example 187, N-(1-Amino-4b-hydroxy-7-isopropyl-10-oxo-9b,10-dihydro-4bH-benzo[d]indeno[1,2-b]furan-9b-yl)-3-methylbenzamide], the EC50 in data set [1] was below 0.01 mg/L. Besides, the CC50 in data set [2] was above 10 mg/L; in data set [2] (Picorana CC50), 7.43 mg/L (≈ 17.3 µM).

On to `Cc1ccc(C(=O)NC23C(=O)c4c(N)cccc4C2(O)Oc2cc(C(C)C)ccc23)cc1` (stereo not shown) [Example 188, N-(1-Amino-4b-hydroxy-7-isopropyl-10-oxo-9b,10-dihydro-4bH-benzo[d]indeno[1,2-b]furan-9b-yl)-4-methylbenzamide], for which the EC50 in data set [1] is below 0.01 mg/L. Further, the CC50 in data set [2] was above 10 mg/L; in data set [2] (Picorana CC50), 8.38 mg/L (≈ 19.6 µM).

As for `COC(=O)c1ccc(C(=O)NC23C(=O)c4c(N)cccc4C2(O)Oc2cc(C(C)C)ccc23)cc1` (stereo not shown) [Example 189, Methyl-4-(1-amino-4b-hydroxy-7-isopropyl-10-oxo-9b,10-dihydro-4bH-benzo[d]indeno[1,2-b]furan-9b-ylcarbamoyl)benzoate], in data set [1], the EC50 was below 0.01 mg/L. Besides, the CC50 was above 10 mg/L in data set [2] and 8.56 mg/L (≈ 18.1 µM) in data set [2] (Picorana CC50).

For `CC(C)c1ccc2c(c1)OC1(O)c3cccc(N)c3C(=O)C21NC(=O)c1cccc(Cl)c1` (stereo not shown) [Example 190, N-(1-Amino-4b-hydroxy-7-isopropyl-10-oxo-9b,10-dihydro-4bH-indeno[1,2-b]benzofuran-9b-yl)-3-chlorobenzamide], the EC50 in data set [1] was below 0.01 mg/L. For the same molecule, the CC50 is 5.52 mg/L (≈ 12.3 µM) in data set [2] and above 10 mg/L in data set [2] (Picorana CC50).

For `Cc1c(C(=O)NC23C(=O)c4c(N)cccc4C2(O)Oc2cc(C(C)C)ccc23)cnc2ccnn12` (stereo not shown) [Example 289, N-(1-Amino-4b-hydroxy-7-isopropyl-10-oxo-9b,10-dihydro-4bH-indeno[1,2-b]benzofuran-9b-yl)-7-methylpyrazolo[1,5-a]pyrimidine-6-carboxamide], in data set [2], the CC50 is above 10 mg/L.
